Measurements from patent publication US7494984B2, “Substituted imidazo[1,2-a]pyrimidines as HIV viral DNA integrase inhibitors” (priority 2005, dated 2009).

Tests used:
HIV-integrase = molecular target: T1, HIV-integrase (Human immunodeficiency virus type 1 group M subtype B, UniProt P12497); experiment: HIV-Integrase Inhibition Activity (SPA strand transfer assay); format: biochemical; details: recombinant integrase, biotin labeled substrate DNA on SPA beads, P33 labeled target DNA; read-out: Activity (IC50 class, HIV-integrase inhibition)
T1 construct: Recombinant integrase (0.26 ng) was incubated with the beads
Description: HIV-Integrase Inhibition Activity. To evaluate in-vitro activity against HIV-integrase, 5 pmole of biotin labeled substrate DNA was bound to 100 μg of Streptavidin coated PVT SPA beads (Amersham Pharmacia Biotech). Recombinant integrase (0.26 ng) was incubated with the beads for 90 min at 37° C. Unbound enzyme was removed by washing the complex followed by addition of inhibitors and 0.1 fmol of P33 labeled target DNA. The reaction was stopped by adding EDTA to a final concentration of 10 mM. Samples were counted in TopCountNXT (Packard) and the CPM was used as a measure of integration. The reaction condition was as described in A. Engelman and R. Craigie, J. Virol. 69, 5908-5911 (1995). The sequences of substrate and target DNA were described in Nucleic Acid Research 22,1121-1122 (1994). Activity equal to A refers to a compound having IC50=0.005 to 0.010 μM while B and C denote compounds having IC50=0.010 to 0.030 μM and IC50>0.030 μM respectively.

For `CNC(=O)c1cc(F)ccc1CNC(=O)c1nc2n(c(=O)c1O)CCN2Cc1ccccc1` [Example 18, N-(4-Fluoro-2-(methylcarbamoyl)benzyl)-1-benzyl-6-hydroxy-5-oxo-1,2,3,5-tetrahydroimidazo[1,2-a]pyrimidine-7-carboxamide], the IC50 (HIV-integrase) was 10 to 30 nM and the melting point was 206 °C (dec.).
With `O=C(NCc1ccc(F)cc1-n1cncn1)c1nc2n(c(=O)c1O)CCN2Cc1ccccc1` [Example 19, N-(4-Fluoro-2-(1H-1,2,4-triazol-1-yl)benzyl)-1-benzyl-6-hydroxy-5-oxo-1,2,3,5-tetrahydroimidazo[1,2-a]pyrimidine-7-carboxamide] the IC50 (HIV-integrase) was 10 to 30 nM and the melting point was 242 °C (dec.).
Work on `COCCN1CCn2c1nc(C(=O)NCc1ccc(F)cc1)c(O)c2=O` [Example 29, N-(4-Fluorobenzyl)-6-hydroxy-1-(2-methoxyethyl)-5-oxo-1,2,3,5-tetrahydroimidazo[1,2-a]pyrimidine-7-carboxamide] yielded an IC50 (HIV-integrase) of 10 to 30 nM and a melting point of 166 °C.
Work on `O=C(NCc1ccc(F)cc1)c1nc2n(c(=O)c1O)CCN2CCO` [Example 30, N-(4-Fluorobenzyl)-6-hydroxy-1-(2-hydroxyethyl)-5-oxo-1,2,3,5-tetrahydroimidazo[1,2-a]pyrimidine-7-carboxamide] yielded an IC50 (HIV-integrase) of 10 to 30 nM and a melting point of 203 °C.
`O=C(NCc1ccc(F)cc1-n1cncn1)c1nc2n(c(=O)c1O)CCN2CCO` [Example 31, N-(4-Fluoro-2-(1H-1,2,4-triazol-1-yl)benzyl)-6-hydroxy-(2-hydroxyethyl)-5-oxo-1,2,3,5-tetrahydroimidazo[1,2-a]pyrimidine-7-carboxamide] showed an IC50 (HIV-integrase) of 10 to 30 nM and a melting point of 220 to 222 °C.
